Assays:
Format in all cases: in vivo
[1] = Liver lipids in Swiss mice fed with a western diet; conditions: 100 mg/kg/day, western diet 6 weeks, fasted 48 h
Experimental: (§1) Total lipids and triglycerides in the liver of animals were assessed according to a procedure partially reported by (Letteron P., Fromenty B., Terris B., Degott C., Pessayre D., 1996, J. Hepatol. 24 : 200-208). Briefly, after killing of the animals, livers were removed and homogenized in sterile water. Hepatic lipids were thus extracted by a mixture of chloroform and methanol (2/1; v/v). After removal of the aqueous phase, the organic phase (chloroform containing the lipids) was evaporated and the amount of lipids was determined by gravimetry. Lipids were subsequently resuspended in isopropanol (final concentration, ca. 10 mg/mL). After removal of the phopholipids by using aluminum hydroxide hydrate, triglycerides were determined colorimetrically by using periodate and the Nash's reagent (containing acetylacetone, ammonium acetate and isopropanol). The reaction generates diacetyldihydrolutidine which is assayed by spectrophotometry (λ=410 nm).
Liver lipids were assessed in mice fed with the western diet (WD) receiving or not of 100 mg/kg/day of β-aminoisobutyric acid (BAIBA) in the drinking water (8 mice in each group). For comparison, the experiment also included a group of mice (n=8) fed with a standard diet (SD). These animals were those used for the determination of body fat by DEXA (see above, paragraph I-c) but after the last DEXA measurement (i.e. after 6 weeks of treatment), mice were allowed to recover from the anaesthesia for ca. 2 days and were then submitted to a 48-hour period of fast. At the end of this fasting period DEXA was again performed (see above) and then mice were killed for liver lipids determination. The western diet was responsible for an increase in liver lipids as compared to mice fed with the standard diet.

[2] = Liver triglycerides in ob/ob mice, 6 weeks; conditions: 100 mg/kg/day 6 weeks, fasted 48 h
Experimental: as §1
Liver triglycerides were assessed in ob/ob mice fed with a standard diet and receiving or not of 100 mg/kg/day of β-aminoisobutyric acid (BAIBA) in the drinking water during 6 weeks. Mice were 10 weeks old at the beginning of the experiment. These animals (7 controls and 10 treated with BAIBA) were different from those used for the determination of body fat by DEXA in the fed state (see above, paragraph I-d). At the end of the 6 weeks of treatment mice were submitted to a 48-hour period of fast At the end of this fasting period mice were killed for assessment of liver triglycerides. […] Indeed, liver triglycerides were reduced by 16 and 12%, respectively when the values were expressed as mg/whole liver or as mg/gram of lipids.

[3] = Liver histology in ob/ob mice, first series (48-hr fast); conditions: standard diet
Experimental: Plasma HDL-cholesterol and alanine aminotransferase (ALT) were measured on an automatic analyser (Olympus AU400®) with commercial kits (Olympus Diagnostica GmbH, references OSR6187 and OSR6107, respectively).
Finally, liver histology was performed according to regular procedure. Steatosis and fibrosis were assessed thanks to the Oil red O and Masson's trichrome stains, respectively, whereas necrosis and inflammation were determined thanks to the HPS (Hematoxylin-Phloxin-Saffron) stain, or the HE (Hematoxylin-Eosin) stain. In one experiment, perisinusoidal fibrosis was assessed with the Sirius Red stain.
Liver histology was first examined in ob/ob mice fed with standard diet receiving (11 mice) or not (10 mice) β-aminoisobutyric acid in the drinking water. In this experiment, mice were submitted to a 48-hr period of fast before killing and liver examination.

Q: For `CC(CN)C(=O)O` (racemic) [BAIBA, D,L-β-Aminoisobutyric acid], which hepatic triglycerides [1] is on record?
A: 33±6 mg/whole liver

Q: What about the liver lipids [1] of the same compound?
A: 108±7 mg/whole liver

Q: What about the “decrease of liver total lipids” value ([1]; vs Controls-WD) of the same compound?
A: 24%

Q: And the “decrease of liver triglycerides” value ([1]; vs Controls-WD)?
A: 17%

Q: What about the “reduction of liver triglycerides (values as mg/gram of lipids)” value [2] of the same compound?
A: 12%

Q: And the “reduction of liver triglycerides (values as mg/whole liver)” value [2]?
A: 16%

Q: What about the liver triglycerides ([2]; p<0.01) of the same compound?
A: 625±14 mg/g of lipids

Q: What about the animals with inflammation [3] of the same compound?
A: 63%

Q: What about the animals with necrosis [3] of the same compound?
A: 63%

Q: What about the “animals with perisinusoidal fibrosis” value [3] of the same compound?
A: 45%

Q: What about the plasma alanine aminotransferase [3] of the same compound?
A: not decreased

Q: And the “mice with between 90 and 100% of fat-laden hepatocytes” value ([3]; 11 treated mice)?
A: 27%

From patent publication US20060167098A1, “Method for the treatment of diseases linked to an accumulation of triglycerides and cholesterol” (Institut National De La Sante ET De LA Recherche Medicale …, priority 2003, published 2006)
